Measured values from patent US20240092770A1, “Heterocycle RMB39 Modulators” (Recursion Pharmaceuticals, Inc., priority 2022, published 2024).

target: RBM39 and the DCAF15 complex (RBM39-Flag / His-DCAF15-DDA1-DDB1) (Homo sapiens (Human), UniProt Q14498+Q66K64); assay: DCAF15 RBM39 complex formation TR-FRET assay; assay type: binding; conditions: RBM39(R150-D331) 3xFlag 50 nM, His-DCAF15-DDA1-DDB1 10 nM, 60 min room temperature
Protocol: A TR-FRET assay was used to assess the effect of compounds disclosed herein on the interaction between RBM39 and the DCAF15 complex. Test compounds were dissolved to form a 10 mM DMSO stock solution. A 45 μL aliquot of the stock solution was transferred to a 384 pp-plate, and a threefold, 8-point dilution was performed via transferring 15 μL compound solution into 30 μL of DMSO. The plates were then spun at room temperature at 1,000 RPM for 1 minute.
A 30 nL aliquot of the diluted compound was transferred to a 384 well plate, which was incubated at room temperature for 15 minutes. Next, Solutions 1, 2, and 3 were prepared as described in the below tables. A 5 μL aliquot of Solution 2 was added to each well, followed by 5 μL of Solution 3 to start the reaction. The final volume of each well was 10 μL. The plates were incubated at room temperature for 60 minutes, and then read.
Next, an RBM39 (R150-D331) 3× Flag used in TR-FRET assay was prepared:
Recombinant RBM39 protein is composed of the R1R2 of RBM39 (aa 150 to 331; UniProt: Q14498). The coding sequence was sub-cloned into pGEX4T-1-RBM39-flag vector, expressed as a GST-fusion protein with N-terminal TEV protease cleavage site. A 3× Flag tag was added to the C-terminal of R1R2 used in a FRET assay.

EC50 | Compound
1030 nM | Cc1ccc(NS(=O)(=O)c2nccs2)c2[nH]cc(C#N)c12 [Compound 2]
429 nM | Cc1ccc(NS(=O)(=O)c2ncc(Cl)s2)c2[nH]cc(C#N)c12 [Compound 3]
106 nM | Cc1ccc(NS(=O)(=O)c2cnc(Cl)s2)c2[nH]cc(C#N)c12 [Compound 7]
787 nM | CCc1nc(S(=O)(=O)Nc2ccc(C)c3c(C#N)c[nH]c23)c[nH]1 [Compound 8, N-(3-cyano-4-methyl-1H-indol-7-yl)-2-ethyl-1H-imidazole-4-sulfonamide]
436 nM | Cc1cnc(S(=O)(=O)Nc2ccc(C)c3c(C#N)c[nH]c23)s1 [Compound 9]
75.7 nM | Cc1sc(S(=O)(=O)Nc2ccc(C)c3c(C#N)c[nH]c23)nc1C#N [Compound 10]
108 nM | Cc1sc(S(=O)(=O)Nc2ccc(C)c3c(C#N)c[nH]c23)nc1Br [Compound 11]
384 nM | Cc1ccc(NS(=O)(=O)c2nc(C(F)(F)F)cs2)c2[nH]cc(C#N)c12 [Compound 12, N-(3-cyano-4-methyl-1H-indol-7-yl)-4-(trifluoromethyl)-1,3-thiazole-2-sulfonamide]
298 nM | Cc1ccc(NS(=O)(=O)c2nc(Br)cs2)c2[nH]cc(C#N)c12 [Compound 13]
269 nM | Cc1ccc(NS(=O)(=O)c2cnc(C(F)(F)F)s2)c2[nH]cc(C#N)c12 [Compound 24]
2800 nM | N#Cc1c[nH]c2c(NS(=O)(=O)c3nccs3)cccc12 [Compound 27]
136 nM | Cc1ccc(NS(=O)(=O)c2ncc(-c3cccnc3)s2)c2[nH]cc(C#N)c12 [Compound 32]
301 nM | N#Cc1c[nH]c2c(NS(=O)(=O)c3cnc(C(F)(F)F)s3)cccc12 [Compound 34]
354 nM | Cc1ccc(NS(=O)(=O)c2ncc(-c3ccncc3)s2)c2[nH]cc(C#N)c12 [Compound 36]
427 nM | Cc1ccc(NS(=O)(=O)c2ncc(-c3ccccn3)s2)c2[nH]cc(C#N)c12 [Compound 37]
4190 nM | CCc1nc(S(=O)(=O)Nc2cccc3c(C#N)c[nH]c23)c[nH]1 [Compound 38]

EC50 | Compound
520 nM | Cc1ccc(NS(=O)(=O)c2c[nH]c(C(C)C)n2)c2[nH]cc(C#N)c12 [Compound 39]
275 nM | Cc1ccc(NS(=O)(=O)c2cnc(Br)s2)c2[nH]cc(C#N)c12 [Compound 40]
363 nM | Cc1ccc(NS(=O)(=O)c2nc(CCO)cs2)c2[nH]cc(C#N)c12 [Compound 41]
55.2 nM | Cc1ccc(NS(=O)(=O)c2cncs2)c2[nH]cc(C#N)c12 [Compound 42]
> 30000 nM | Cc1noc(C)c1S(=O)(=O)Nc1ccc(C)c2c(C#N)c[nH]c12 [Compound 43]
904 nM | Cc1ccc(NS(=O)(=O)c2ncc(CCO)s2)c2[nH]cc(C#N)c12 [Compound 44]
394 nM | Cc1ccc(NS(=O)(=O)c2ncc(-c3ccncn3)s2)c2[nH]cc(C#N)c12 [Compound 45]
97 nM | Cc1ccc(NS(=O)(=O)c2csc(C(F)(F)F)n2)c2[nH]cc(C#N)c12 [Compound 47]
125 nM | Cc1ncc(S(=O)(=O)Nc2ccc(C)c3c(C#N)c[nH]c23)s1 [Compound 48]
190 nM | N#Cc1c[nH]c2c(NS(=O)(=O)c3csc(C(F)(F)F)n3)cccc12 [Compound 49]
966 nM | N#Cc1c[nH]c2c(NS(=O)(=O)c3cncs3)cccc12 [Compound 50, N-(3-cyano-1H-indol-7-yl)thiazole-5-sulfonamide]
164 nM | Cc1ncc(S(=O)(=O)Nc2cccc3c(C#N)c[nH]c23)s1 [Compound 51]
302 nM | Cc1sc(S(=O)(=O)Nc2cccc3c(C#N)c[nH]c23)nc1Br [Compound 55]
> 30000 nM | Cc1ccc(NS(=O)(=O)c2nc(C(=O)O)cs2)c2[nH]cc(C#N)c12 [Compound 57]
1080 nM | CNC(=O)c1csc(S(=O)(=O)Nc2ccc(C)c3c(C#N)c[nH]c23)n1 [Compound 58]
802 nM | Cc1ccc(NS(=O)(=O)c2nc(C(=O)N(C)C)cs2)c2[nH]cc(C#N)c12 [Compound 59]
